For series [1] the following is noted: continuous oral administration, irradiated mice, vs untreated controls; cited from earlier work.
For series [2] the following is noted: long term oral administration; cited from earlier work.
For series [3] the following is noted: long term oral use in patients; cited from earlier work.
The subject of another series is SOX2^+ cells of the SLG. Briefly: Pilocarpine treatment of mice, SOX2/Ki67 immunostaining of sublingual gland. Format: in vivo, mouse. Particulars: wild-type mice, I.P. 4.5 mg/kg, vs saline. Here is the method:
Adult male C57BL/6 mice (aged between 6 and 8 weeks) were treated with pilocarpine (Sigma-Aldrich, P0472; 0.68 mg/ml in 0.9% sterile saline). Mice were anesthetized using isoflurane and injected I.P. with pilocarpine at a dose of 4.5 mg/kg bodyweight (200 μl), or 0.9% saline as a vehicle control. Mice were euthanized after 18 h and glands processed for immunofluorescent analysis. Whole-mount salivary gland and tissue section immunofluorescence analysis has been previously described (Knox et al., 2010). In brief, tissue was fixed with either ice-cold acetone/methanol (1:1) for 1 min or 4% PFA for 20-30 min followed by permeabilizing with 0.1-0.3% Triton X. Tissue was blocked overnight at 4° C. with 10% Donkey Serum (Jackson Laboratories, ME), 1% BSA (Sigma-Aldrich), and MOM IgG-blocking reagent (Vector Laboratories, CA) in 0.01% PBS-Tween 20. […] Antibodies were detected using Cy2-, Cy3-, or Cy5-conjugated secondary Fab fragment antibodies (Jackson Laboratories) and nuclei stained using Hoechst 33342 (1:1,000, Sigma-Aldrich). Fluorescence was analyzed using a Leica Sp5 confocal microscope and NIH ImageJ software. For immunofluorescent analyses (e.g., FIG. 2D), cells positively stained for markers were counted using ImageJ. Acinar cell size was measured using ImageJ. […]

Structures are written as SMILES.

As for `CC[C@@H]1C(=O)OC[C@@H]1Cc1cncn1C` [pilocarpine], the salivary flow entry in series [1] was “promoted salivary flow”. Besides, the tumorigenicity entry in series [2] was “not shown to be tumorigenic”. Besides, the salivary gland function entry in series [3] was “improves salivary gland function”. In the series on SOX2^+ cells of the SLG (18 h post-injection), the “percentage of SOX2^+ cells” value was “not significantly changed”. Also, the “percentage of proliferating SOX2^+ cells (SOX2^+Ki67^+ cells)” value in the series on SOX2^+ cells of the SLG (sacrificed at 18 h) is reported as “increased”.

Source of the values: patent US12310954B2, “Salivary gland regeneration” (The Regents of the University of California, priority 2018, dated 2025).
